Literature values, collected in patent US20150272930A1, “Fixed Dosage Formulations of Angiotensin Converting Enzyme (ACE) inhibitor and the Diuretic Chlorthalidone” (AILEX Pharmaceuticals PVT. LTD., priority 2014, published 2015).

Conditions: compared with HCTZ

Compound: NS(=O)(=O)c1cc(C2(O)NC(=O)c3ccccc32)ccc1Cl (centres unmarked) [Chlorthalidone, 2-chloro-5-(1-hydroxy-3-oxo-1,2-dihydroisoindol-1-yl)-benzenesulfonamide]
- duration of action: longer duration of action
- antihypertensive effectiveness (over 24 hours): more effective antihypertensive agent
